Laboratory results: PubChem BioAssay AID1919014 (Molecular Pharmacology Branch, DTP, NCI, 2023)
Where “and” joins values, the source holds several entries; their conditions need not be identical. Equal entries are not always repeated.

System: NCI-H1341 complex spheroids, percent test/control
Experiment: Anticancer human tumor NCI-H1341 cell line growth inhibition [AhR];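 note: spheroids exposed to agents for seven days before readout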
Settings: for viability, T/C: stronger effect = lower value
Excerpt: Multicellular complex tumor spheroid response to aryl hydrocarbon receptor antagonists in combination with a variety of drugs and investigational agents in selected tumor cell lines
The current study was undertaken to assess response to aryl hydrocarbon receptor antagonists in combination with standard-of-care drugs and investigational agents in solid tumor complex spheroid models. Complex spheroids include a stromal component modeled by human endothelial cells (HUVEC) and fibroblasts modeled by human mesenchymal stem cells (MSCs). The concentration ranges selected for each drug and investigational agent were based upon clinically achievable concentrations if the clinical Cmax of the agent was known.
Compounds. The drugs and investigational agents: BAY 2416964 (NSC825713), GNF351 (NSC835774), CH-223191 (NSC835775), CPI-455 (NSC825282), aza-TdCyd (NSC777586), decitabine (NSC127716), belinostat (NSC758774), entinostat (NSC756642), pevonedistat (NSC761192), tazemetostat (NSC777109), talazoparib (NSC765396), olaparib (NSC753686), selinexor (NSC780203), nedisertib (M3814, NSC802822), bortezomib (NSC756655), venetoclax (NSC766270), doxorubicin (NSC123127), elimusertib (BAY189344, NSC800525), ceralasertib (AZD6738, NSC777638), TAK-243 (NSC785004), alisertib (NSC759677), etoposide (NSC141540), topotecan (NSC609699), eribulin (NSC707389), gemcitabine (NSC613327), carboplatin (NSC241240), cisplatin (NSC119875), and SN-38 (NSC673596) were obtained from the National Cancer Institute (NCI) Developmental Therapeutics Program Chemical Repository (32). The FDA-approved anticancer drug set is available from the Developmental Therapeutics Program at https://dtp.cancer.gov/organization/dscb/obtaining/available plates.htm. […] The stock solutions were prepared in dimethyl sulfoxide (DMSO, Sigma-Aldrich, St. Louis, MO, cat. D2650), except for the platinum compounds which were prepared in saline (Quality Biological, Gaithersburg, MD, cat. 114-055-101), at 800-fold the tested concentration and stored at -70 degrees C prior to their use. All drugs and investigational agents were tested over a range starting from a high concentration at or near the clinical Cmax and decreasing in half-log increments. If the clinical Cmax for an agent had not been determined, the highest concentration tested was 10 microM (Table 1).
Cell Culture. All cells were maintained in an incubator at 37 degrees C and 5% CO2 with 95% humidity. The PDC lines were cultured according to standard operating procedures established by the NCI PDMR (https://pdmr.cancer.gov). Briefly, all PDCs were thawed and cultured in Matrigel-coated flasks prepared with a working solution of 1X Ham's F-12 nutrient mix, without supplementation (Invitrogen, Waltham, MA, cat. 11765054), 100 U/mL penicillin-streptomycin (Invitrogen, cat. 15140122), and 2.5% Matrigel (Corning Inc., Corning, NY, cat. 354248) for the first three passages. All PDCs were cultured in complete DMEM/F-12 media containing advanced DMEM/F-12 (Invitrogen, cat. 12634028), 4.9% defined fetal bovine serum, heat inactivated (HyClone Laboratories Inc., Logan, UT, cat. SH30070.03HI), 389 ng/mL hydrocortisone (Sigma-Aldrich, cat. H4001), 9.7 ng/mL human EGF recombinant protein (Invitrogen, cat. PHG0313), 23.4 microg/mL adenine (Sigma-Aldrich, cat. A2786), 97.3 U/mL penicillin-streptomycin (Invitrogen, cat. 15140122), 1.9 mM L-glutamine (Invitrogen, cat. 25030081), and 9.7 microM Y-27632 dihydrochloride (Tocris Bioscience, Bristol, United Kingdom, cat. 1254). The PDCs were cultured in complete DMEM/F12 media without 10 microM Y-27632 dihydrochloride for at least two passages prior to the screen. The established cell lines NCI-H1341 and […] were cultured in DMEM/F-12, HEPES (Invitrogen, cat. 11330032), 5% defined fetal bovine serum (HyClone Laboratories Inc., cat. SH30070.03), ITS premix universal culture supplement [insulin (5 microg/mL), transferrin (5 microg/mL), and selenious acid (5 ng/mL)] […]

| Compound | IC50 (curve of compound) | viability, T/C (compound 0.0316 µM) | viability, T/C (compound 0.1 µM) | viability, T/C (compound 0.316 µM) | viability, T/C (compound 1 µM) | viability, T/C (compound 3.16 µM) | viability, T/C (compound 10 µM) | further results |
| --- | --- | --- | --- | --- | --- | --- | --- | --- |
| CC(C)CC(NC(=O)C(Cc1ccccc1)NC(=O)c1cnccn1)B(O)O (stereo unspecified) | 5 nM and 4.6 nM | – | – | – | – | – | – | viability, T/C (compound 0.000949 µM): 97% and 95% and 100%; viability, T/C (compound 0.003 µM): 87.7% and 87% and 79%; viability, T/C (compound 0.00949 µM): 2.76% and 3.47% and 0.86%; viability, T/C (compound 0.03 µM): 0.19% and 0.35% and 0.14%; viability, T/C (compound 0.0949 µM): 0.14% and 0.25% and 0.11%; viability, T/C (compound 0.3 µM): 0.17% and 0.31% and 0.15% |
| CC(C)c1c(-c2ccccc2)nc2c(C#N)c[nH]n2c1=O | > 10000 nM | 105% (2×) and 130% | 93.4% and 104% and 101% | 90% and 98.5% and 101% | 88.2% and 103% and 97.3% | 100% and 82.5% and 90.3% | 78% and 92% and 91.9% | – |
| CC(CO)NC(=O)c1cc(-c2ccc(Cl)cc2)nn(-c2cnn(C)c2)c1=O (stereo unspecified) | – | – | – | – | – | – | 78.7% [middle of 19 runs] | IC50 (compound alone, run of 07/12/2022): > 10000 nM |
| CC1(C)CCC(CN2CCN(c3ccc(C(=O)NS(=O)(=O)c4ccc(NCC5CCOCC5)c([N+](=O)[O-])c4)c(Oc4cnc5[nH]ccc5c4)c3)CC2)=C(c2ccc(Cl)cc2)C1 | > 10000 nM and 2070 nM and 2200 nM | 113% and 85.5% and 86.1% | 97% and 69.1% and 76.1% | 95.7% and 108% and 96.4% | 101% and 68% and 72.1% | 92.2% and 38.2% and 39.1% | 85.7% and 14% and 10.1% | – |
| CC1COCCN1c1cc(-c2ccnn2C)c2ccnc(-c3ccn[nH]3)c2n1 (stereo unspecified) | 43.2 nM and 79.6 nM and 38.3 nM | 60.1% and 77.4% and 53.4% | 28.1% and 43% and 29.3% | 23.1% and 38.5% and 23.2% | 16.5% and 27.6% and 19.2% | – | – | viability, T/C (compound 0.00316 µM): 107% and 90.1% and 110%; viability, T/C (compound 0.01 µM): 115% and 99.5% and 98.4% |
| CC1COCCN1c1cc(C2(S(C)(=N)=O)CC2)nc(-c2ccnc3[nH]ccc23)n1 (stereo unspecified) | 4400 nM and 2570 nM and 1910 nM | 78.3% and 98.6% and 99.5% | 102% and 101% and 88.4% | 83.1% and 114% and 76.1% | 96.3% and 75.8% and 66.2% | 60.8% and 47.8% and 37.9% | 23.1% and 30.4% and 20.2% | – |
| CCN(c1cc(-c2ccc(CN3CCOCC3)cc2)cc(C(=O)NCc2c(C)cc(C)[nH]c2=O)c1C)C1CCOCC1 | > 3000 nM | – | – | – | – | – | – | viability, T/C (compound 0.00949 µM): 94.3% and 103% and 94.7%; viability, T/C (compound 0.03 µM): 84.3% and 90.7% and 97%; viability, T/C (compound 0.0949 µM): 101% and 87.8% and 83%; viability, T/C (compound 0.3 µM): 85% and 87.6% and 82.2%; viability, T/C (compound 0.949 µM): 79.2% and 119% and 90.2%; viability, T/C (compound 3 µM): 90.2% and 89.3% and 73.7% |
| CC[C@@]1(O)C(=O)OCc2c1cc1n(c2=O)Cc2cc3c(CN(C)C)c(O)ccc3nc2-1 | 29.9 nM and 56.8 nM and 71.3 nM | 48.4% and 65.8% and 57.3% | 35.3% and 35% and 46.5% | – | – | – | – | viability, T/C (compound 0.000316 µM): 89.2% and 92.2% and 98.9%; viability, T/C (compound 0.001 µM): 94.4% and 86.7% and 107%; viability, T/C (compound 0.00316 µM): 89.6% and 91.8% and 112%; viability, T/C (compound 0.01 µM): 80.9% and 79.7% and 87.2% |
| CCc1c2c(nc3ccc(O)cc13)-c1cc3c(c(=O)n1C2)COC(=O)[C@]3(O)CC | 10.5 nM and 19.6 nM and 12.3 nM | – | – | – | – | – | – | viability, T/C (compound 0.000949 µM): 89.8% and 92.6% and 89%; viability, T/C (compound 0.003 µM): 77% and 86.1% and 83.9%; viability, T/C (compound 0.00949 µM): 46.3% and 51.3% and 49.4%; viability, T/C (compound 0.03 µM): 34.4% and 45.9% and 36.6%; viability, T/C (compound 0.0949 µM): 27.4% and 34.4% and 28.5%; viability, T/C (compound 0.3 µM): 13.3% and 18.2% and 17% |
| COc1cc(C2c3cc4c(cc3C(OC3OC5COC(C)OC5C(O)C3O)C3COC(=O)C23)OCO4)cc(OC)c1O (stereo unspecified) | – | 98.7% and 93.7% and 88.8% | 86.3% and 90.8% and 80.8% | 75.5% and 77.2% and 57% | 44.2% and 51.9% and 53.8% | 35.1% and 45.4% and 52.8% | 35.9% and 30.7% and 53.1% | – |
| COc1cc(Nc2ncc3c(n2)-c2ccc(Cl)cc2C(c2c(F)cccc2OC)=NC3)ccc1C(=O)O | < 31.6 nM | 33% and 48.4% and 43.1% | 43.8% and 51.7% and 43% | 37% and 43.2% and 50.4% | 29.6% and 37.5% and 36.1% | 27.7% and 28% and 29.3% | 22.2% and 26.8% and 26.4% | – |
